# Experimental data from patent US20070117743A1, “New antitumoral compounds” (priority 2003, published 2007).
# Where a SMILES comes first, the peptide text is derived from it. Bridges are numbered along the chain shown (N, C = ends). [ ]: non-standard residue; d: D form. The star is where a group is joined. d(aIle) = CC[C@H](C)[C@@H](N)C(=O)O; d(aThr) = C[C@@H](O)[C@@H](N)C(=O)O; Hexanoyl(5-Me) = CC(C)CCCC(=O)*; Orn = NCCC[C@H](N)C(=O)O; Dhb = C/C=C(\N)C(=O)O
# Key:
# Type in all cases: cell-based, human
# [1] = test system: LoVo-Dox; assay: SRB colorimetric assay of cell growth and viability, LoVo-Dox; conditions: LOVO-DOX, 48 hours exposure; for CC50: read-out: LC50 LOVO-DOX
# Outline: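 Cells in RPMI 1640 with 10% FBS were seeded at 5×10^3 per well and left 18 hours drug-free before compounds (10 to 10^−8 μg/mL in DMSO:EtOH:PBS 0.5:0.5:99) were added for 48 hours. TCA-fixed cells were stained with SRB and read at 490 nm; triplicate wells gave GI, TGI and LC.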
# [2] = test system: IGROV-ET; assay: SRB colorimetric assay of cell growth and viability, IGROV-ET; conditions: IGROV-ET, 48 hours exposure; for CC50: read-out: LC50 IGROV-ET
# [3] = test system: LNCaP; assay: SRB colorimetric assay of cell growth and viability, LNCaP; conditions: LN-caP, 48 hours exposure; for CC50: read-out: LC50 LN-caP
# [4] = test system: HeLa; assay: SRB colorimetric assay of cell growth and viability, HeLa; conditions: HELA, 48 hours exposure; for CC50: read-out: LC50 HELA
# [5] = test system: HeLa-APL; assay: SRB colorimetric assay of cell growth and viability, HeLa-APL; conditions: HELA-APL, 48 hours exposure; for CC50: read-out: LC50 HELA-APL
# [6] = test system: DU-145; assay: SRB colorimetric assay of cell growth and viability, DU-145; conditions: DU-145; 48 hours exposure
# [7] = test system: A-549; assay: SRB colorimetric assay of cell growth and viability, A-549; conditions: A-549, 48 hours exposure; for GI50: read-out: GI50 A-549; for CC50: read-out: LC50 A-549
# [8] = test system: SK-MEL-28; assay: SRB colorimetric assay of cell growth and viability, SK-MEL-28; conditions: MEL-28, 48 hours exposure; for CC50: read-out: LC50 MEL-28
# [9] = test system: HT-29; assay: SRB colorimetric assay of cell growth and viability, HT-29; conditions: HT-29, 48 hours exposure; for GI50: read-out: GI50 HT-29; for CC50: read-out: LC50 HT-29
# [10] = test system: PANC-1; assay: SRB colorimetric assay of cell growth and viability, PANC-1; conditions: PANC-1, 48 hours exposure; for CC50: read-out: LC50 PANC-1
# [11] = test system: SK-BR-3; assay: SRB colorimetric assay of cell growth and viability, SK-BR-3; conditions: SK-BR-3; 48 hours exposure
# [12] = test system: K-562; assay: SRB colorimetric assay of cell growth and viability, K-562; conditions: K-562, 48 hours exposure; for CC50: read-out: LC50 K-562
# [13] = test system: IGROV-1; assay: SRB colorimetric assay of cell growth and viability, IGROV-1; conditions: IGROV; 48 hours exposure
SMILES,GI50 [1],TGI LOVO-DOX [1],CC50 [1],GI50 [2],TGI IGROV-ET [2],CC50 [2],GI50 [3],TGI LN-caP [3],CC50 [3],GI50 [4],TGI HELA [4],CC50 [4],GI50 [5],TGI HELA-APL [5],CC50 [5],GI50 [6],LC50 (concentration causing 50% net cell kill) [6],TGI DU-145 [6],TGI A-549 [7],GI50 [7],further results
"C/C=C1\NC(=O)[C@H](Cc2ccccc2)NC(=O)[C@@H](C(C)C)NC(=O)[C@@H]([C@@H](C)CC)NC(=O)[C@H](NC(=O)[C@H](NC(=O)[C@H](CCCN)NC(=O)[C@H]2CCCN2C(=O)[C@H](NC(=O)[C@@H](NC(=O)[C@H](C)NC(=O)[C@H](NC(=O)CCCC(C)C)C(C)C)C(C)C)C(C)C)[C@@H](C)CC)[C@@H](C)OC(=O)[C@H](C(C)C)NC1=O [Compound 112, [Ala^12]-KF] ({Hexanoyl(5-Me)}-[dV]AV[dV][dP][Orn][d(aIle)][d(aThr)][d(aIle)][dV]F[Dhb]V; ester 8-C)",1.11 µM,2.76E−06 Molar,6.85 µM,1.51 µM,3.44E−06 Molar,6.91 µM,1.19 µM,2.64E−06 Molar,5.85 µM,0.739 µM,2.41E−06 Molar,6.91 µM,1.42 µM,2.85E−06 Molar,5.75 µM,1.34 µM,5.91 µM,2.82E−06 Molar,2.87E−06 Molar,1.45 µM,CC50 [7]: 5.64 µM; GI50 [8]: 1.39 µM; TGI MEL-28 [8]: 2.74E−06 Molar; CC50 [8]: 5.43 µM; TGI HT-29 [9]: 2.26E−06 Molar; GI50 [9]: 1.15 µM; CC50 [9]: 4.45 µM; GI50 [10]: 1.91 µM; TGI PANC-1 [10]: 5.43E−06 Molar; CC50 [10]: 6.91 µM; GI50 [11]: 3.97 µM; LC50 [11]: 6.91 µM; TGI SK-BR-3 [11]: 5.84E−06 Molar; GI50 [12]: 2.79 µM; TGI K-562 [12]: 5.62E−06 Molar; CC50 [12]: 6.91 µM; GI50 [13]: 1.31 µM; LC50 (concentration causing 50% net cell killing) [13]: 6.91 µM; TGI IGROV [13]: 3.09E−06 Molar
"C/C=C1\NC(=O)[C@H](Cc2ccccc2)NC(=O)[C@@H](C(C)C)NC(=O)[C@@H]([C@@H](C)CC)NC(=O)[C@H](NC(=O)[C@H](NC(=O)[C@H](CCCN)NC(=O)[C@H]2CCCN2C(=O)[C@H](NC(=O)[C@@H](NC(=O)[C@H](CC(C)C)NC(=O)[C@H](NC(=O)CCCC(C)C)C(C)C)C(C)C)C(C)C)[C@@H](C)CC)[C@@H](C)OC(=O)[C@H](C(C)C)NC1=O [Compound 113, [Leu^12]-KF] ({Hexanoyl(5-Me)}-[dV]LV[dV][dP][Orn][d(aIle)][d(aThr)][d(aIle)][dV]F[Dhb]V; ester 8-C)",0.226 µM,6.11E−07 Molar,6.71 µM,0.926 µM,2.48E−06 Molar,6.62 µM,0.906 µM,2.20E−06 Molar,5.32 µM,0.191 µM,4.95E−07 Molar,5.79 µM,1.19 µM,2.59E−06 Molar,5.66 µM,0.906 µM,5.09 µM,2.14E−06 Molar,2.95E−06 Molar,1.44 µM,CC50 [7]: 6.04 µM; GI50 [8]: 1.42 µM; TGI MEL-28 [8]: 2.77E−06 Molar; CC50 [8]: 5.37 µM; TGI HT-29 [9]: 1.76E−06 Molar; GI50 [9]: 0.691 µM; CC50 [9]: 4.5 µM; GI50 [10]: 1.82 µM; TGI PANC-1 [10]: 4.89E−06 Molar; CC50 [10]: 6.71 µM; GI50 [11]: 0.292 µM; LC50 [11]: 6.71 µM; TGI SK-BR-3 [11]: 6.13E−07 Molar; GI50 [12]: 1.84 µM; TGI K-562 [12]: 3.24E−06 Molar; CC50 [12]: 5.72 µM; GI50 [13]: 0.415 µM; LC50 (concentration causing 50% net cell killing) [13]: 6.71 µM; TGI IGROV [13]: 1.70E−06 Molar
"C/C=C1\NC(=O)[C@H](Cc2ccccc2)NC(=O)[C@@H](C(C)C)NC(=O)[C@@H]([C@@H](C)CC)NC(=O)[C@H](NC(=O)[C@H](NC(=O)[C@H](CCCN)NC(=O)[C@H]2CCCN2C(=O)[C@H](NC(=O)[C@@H](NC(=O)[C@H](Cc2ccccc2)NC(=O)[C@H](NC(=O)CCCC(C)C)C(C)C)C(C)C)C(C)C)[C@@H](C)CC)[C@@H](C)OC(=O)[C@H](C(C)C)NC1=O [Compound 114, [Phe^12]-KF] ({Hexanoyl(5-Me)}-[dV]FV[dV][dP][Orn][d(aIle)][d(aThr)][d(aIle)][dV]F[Dhb]V; ester 8-C)",0.18 µM,3.94E−07 Molar,4.27 µM,0.301 µM,8.40E−07 Molar,6.38 µM,0.053 µM,3.00E−07 Molar,4.7 µM,0.259 µM,9.25E−07 Molar,5.69 µM,0.143 µM,3.49E−07 Molar,2.03 µM,0.18 µM,1.73 µM,3.75E−07 Molar,3.50E−07 Molar,0.157 µM,CC50 [7]: 1.52 µM; GI50 [8]: 0.17 µM; TGI MEL-28 [8]: 3.36E−07 Molar; CC50 [8]: 0.748 µM; TGI HT-29 [9]: 3.22E−07 Molar; GI50 [9]: 0.157 µM; CC50 [9]: 0.696 µM; GI50 [10]: 0.233 µM; TGI PANC-1 [10]: 1.16E−06 Molar; CC50 [10]: 6.56 µM; GI50 [11]: 0.207 µM; LC50 [11]: 6.56 µM; TGI SK-BR-3 [11]: 4.62E−07 Molar; GI50 [12]: 0.0787 µM; TGI K-562 [12]: 3.71E−07 Molar; CC50 [12]: 4.03 µM; GI50 [13]: 0.114 µM; LC50 (concentration causing 50% net cell killing) [13]: 6.56 µM; TGI IGROV [13]: 3.10E−07 Molar
"C/C=C1\NC(=O)[C@H](Cc2ccccc2)NC(=O)[C@@H](C(C)C)NC(=O)[C@@H]([C@@H](C)CC)NC(=O)[C@H](NC(=O)[C@H](NC(=O)[C@H](CCCN)NC(=O)[C@H]2CCCN2C(=O)[C@H](NC(=O)[C@@H](NC(=O)[C@H](CCC(=O)O)NC(=O)[C@H](NC(=O)CCCC(C)C)C(C)C)C(C)C)C(C)C)[C@@H](C)CC)[C@@H](C)OC(=O)[C@H](C(C)C)NC1=O [Compound 115, [Glu^12]-KF] ({Hexanoyl(5-Me)}-[dV]EV[dV][dP][Orn][d(aIle)][d(aThr)][d(aIle)][dV]F[Dhb]V; ester 8-C)",1.52 µM,3.00E−06 Molar,5.92 µM,1.67 µM,3.12E−06 Molar,5.83 µM,1.28 µM,2.54E−06 Molar,5.01 µM,6.64 µM,6.64E−06 Molar,6.64 µM,2.99 µM,6.64E−06 Molar,6.64 µM,3.25 µM,6.64 µM,6.64E−06 Molar,6.64E−06 Molar,4.1 µM,CC50 [7]: 6.64 µM; GI50 [8]: 6.5 µM; TGI MEL-28 [8]: 6.64E−06 Molar; CC50 [8]: 6.64 µM; TGI HT-29 [9]: 2.60E−06 Molar; GI50 [9]: 1.33 µM; CC50 [9]: 5.09 µM; GI50 [10]: 6.64 µM; TGI PANC-1 [10]: 6.64E−06 Molar; CC50 [10]: 6.64 µM; GI50 [11]: 1.35 µM; LC50 [11]: 6.64 µM; TGI SK-BR-3 [11]: 3.01E−06 Molar; GI50 [12]: 6.64 µM; TGI K-562 [12]: 6.64E−06 Molar; CC50 [12]: 6.64 µM; GI50 [13]: 1.54 µM; LC50 (concentration causing 50% net cell killing) [13]: 6.64 µM; TGI IGROV [13]: 3.59E−06 Molar
